Experimental findings from patent US20150352076A1, “MOLECULARLY TARGETED COMBINATION DRUG FOR TUMOR TREATMENT AND PREVENTION” (ONCOLYS BIOPHARMA INC., priority 2013, published 2015) are described below.

Common to all, as to assay type: cell-based, human
Test [1] deals with HEC-1-A cells. Briefly: Analysis of cell cycle and apoptosis (sub-G1 fraction, flow cytometry) with combination index. As to conditions: for effect on tumor cell cycle progression: used alone, OBP-801 4 nM, LY294002 12.5 μM, 24 hours to 72 hours. Here is the method:
(§1) Cells were treated for 24 hours, 48 hours, or 72 hours at respective concentrations with or without addition of OBP-801 and/or with addition of LY294002, BKM120, GDC-0941, BEZ235, BYL719, or CH5132799, following which cells were harvested. The cells were permeabilized with 0.1% Triton-X100, following which the nuclei were stained with propidium iodide (PI). DNA content was measured using a FACSCalibur™ flow cytometer (Becton-Dickinson, Franklin Lakes, N.J., USA), and was analyzed with ModFit LT™ (Verity Software House, Topsham, Me., USA) and the Cell Quest™ software package (Becton-Dickinson).
Combination index (CI) was calculated using CalcuSyn software (Biosoft, UK) based on the method of Chou and Talalay. When CI<1, it is determined that the effect is synergistic; i.e., greater than the expected additive effect. When CI=1, it is determined that the effect is additive; when CI>1, it is determined that the effect is antagonistic.

Test [2] relates to 786-O cells. Briefly: Analysis of apoptosis (sub-G1 fraction, flow cytometry). The settings on record: for effect of combined use with OBP-801 (summary statement): PI3K inhibitor used in combination with OBP-801, all five tested in 786-O cells; for induction of apoptosis (sub-G1), treatment alone: 48 hours and 72 hours. On the procedure:
as §1

The test system of the next test is survivin and XIAP. Briefly: Western blot analysis of survivin and XIAP in 786-O cells. The settings on record: OBP-801 and LY294002 plus NAC. Here is the method:
(§2) Cells were lysed with lysis solution (50 mM Tris-HCl, 1% SDS, 2 μg/mL leupeptin, 2 μg/mL aprotinin, 0.1% 2-mercaptoethanol, and 1 mM phenylmethyl sulfonyl fluoride). Protein extract was loaded onto a polyacrylamide gel, subjected to electrophoresis, and transferred to a nitrocellulose membrane. Blots were blocked in blocking solution (5% skim milk/TBST) for 1 hour at room temperature, and incubated with appropriate primary antibody for 1 hour at room temperature. Signal was detected with an ECL™ Western Blot Analysis System (GE Healthcare, Piscataway, N.J., USA) or a Chemi-Lumi One chemiluminescent detection kit (Nacalai Tesque, Inc., Japan). […]

The next test concerns caspases, Bim. Briefly: Western blot analysis of caspase cleavage and Bim in HEC-1-A cells. As to conditions: OBP-801 and LY294002 plus NAC. On the procedure: as §2
In test [3] the test system is HEC-1-A cells. Briefly: Measurement of intracellular reactive oxygen species (CM-H2DCFDA). The settings on record: OBP-801 and LY294002 plus NAC. Here is the method: (§3) Cells were pretreated for 48 h with or without addition of OBP-801 and/or with addition of LY294002, and were thereafter treated with 10 μM 5-(and-6)-chloromethyl-2′,7′-dichlorodihydrofluorescein diacetate, acetyl ester (CM-H2DCFDA) (Invitrogen, Carlsbad, Calif., USA). After 30 minutes of incubation with 10 μM CM-H2DCFDA, cells were collected by trypsinization, were washed with PBS, and were analyzed by flow cytometry using FACSCalibur™ and CellQuest™ software (Becton-Dickinson).

The test system of test [4] is 786-O cells. The test is described as above. The settings on record: OBP-801 and LY294002 plus NAC. Here is the method:
as §3

The test system of test [5] is HEC-1-A cells. Briefly: Colony formation assay. On the procedure: Cells were seeded at a density of 200 cells per well in 6-well plates. After culturing these for 24 hours, treatment was carried out for 48 hours at respective concentrations with or without addition of OBP-801 and/or with addition of LY294002. These were then cultured in growth medium for 10 days, and the number of viable colonies was counted.

Test [6] relates to caspase-3, caspase-8 and caspase-9. Briefly: Western blot analysis of caspase-3, caspase-8 and caspase-9 cleavage in 786-O cells. On the procedure: as §2
For test [7], the system named is HEC-1-A cells. Briefly: Cell viability testing (Cell Counting Kit-8), cell growth inhibition. Here is the method:
(§4) HEC-1-A cells derived from the human type 2 endometrial carcinoma cell line were cultured under conditions of 37° C. and 5% CO2 in RPMI medium to which 10% FBS had been added. Ishikawa human endometrial carcinoma cells were cultured under conditions of 37° C. and 5% CO2 in DMEM medium to which 10% FBS had been added. Human renal cell carcinoma cell line 786-O cells were cultured under conditions of 37° C. and 5% CO2 in RPMI 1640 medium to which 10% FBS, 2 mM glutamine, 100 U/mL penicillin, and 100 μg/mL streptomycin had been added. Human renal cell carcinoma cell line ACHN cells were cultured under conditions of 37° C. and 5% CO2 in DMEM medium to which 10% FBS, 4 mM glutamine, 100 U/mL penicillin, and 100 μg/mL streptomycin had been added. Human lymphoma cell line SU-DHL-6 cells were cultured under conditions of 37° C. and 5% CO2 in RPMI 1640 medium to which 10% FBS, 2 mM glutamine, 100 U/mL penicillin, and 100 μg/mL streptomycin had been added. Human breast cancer cell line MDA-MB-231 cells were cultured under conditions of 37° C. and 5% CO2 in RPMI 1640 medium to which 10% FBS, 2 mM glutamine, 100 U/mL penicillin, and 100 μg/mL streptomycin had been added.
(§5) Cell viability was determined by carrying out measurements at a wavelength of 450 nm with a Viento multi-well spectrophotometer (DS Pharma Biomedical, Japan) using a Cell Counting Kit-8 (Dojindo Laboratories, Japan).

In another test the test system is phosphorylated Akt. Briefly: Western blot analysis of phosphorylated Akt in HEC-1-A cells. Here is the method:
as §2

Test [8] concerns 786-O cells. Briefly: Cell viability testing, cell growth inhibition. As to conditions: used alone. Here is the method:
as §4, §5

The subject of a further test is ACHN cells. Briefly: Cell viability testing, cell growth inhibition. The settings on record: used alone. Here is the method: as §4, §5
A further test concerns Ishikawa cells. Briefly: Cell viability testing, cell growth inhibition. The settings on record: used alone. Here is the method: as §4, §5
The test system of a further test is acetylated histone H4. Briefly: Western blot analysis of acetylated histone H4 in HEC-1-A cells. On the procedure: as §2

Residues, ends and D or L forms follow the SMILES beside them. *: point of attachment. Cbz = O=C(OCc1ccccc1)*; CH2F = FC* Some results are limits rather than exact numbers.

As for `COC(=O)C[C@H](NC(=O)[C@H](C)NC(=O)[C@@H](NC(=O)OCc1ccccc1)C(C)C)C(=O)CF` [zVAD-fmk] (Cbz-Val-Ala-Asp(OMe)-CH2F), the “effect on apoptosis induced by combined use of OBP-801 and PI3K inhibitor” value in the test with HEC-1-A cells [1] (HEC-1-A cells, pan-caspase inhibitor added) is reported as “almost completely suppressed”. Also, in the test on 786-O cells [2] (786-O cells, pan-caspase inhibitor added), the “effect on apoptosis induced by combined treatment with OBP-801 and LY294002” value is reported as “effectively suppressed the apoptosis”.
As to `Cn1c(=O)n(-c2ccc(C(C)(C)C#N)cc2)c2c3cc(-c4cnc5ccccc5c4)ccc3ncc21` [BEZ235], the “effect of combined use with OBP-801 (summary statement)” value (“effect of combined use” for short) with 786-O cells [2] is recorded as “synergistic tumor therapeutic/prophylactic effect”.
As for `CC(=O)N[C@@H](CS)C(=O)O` [NAC, N-acetyl-L-cysteine], the “effect on downregulation of survivin and XIAP by combined treatment” value in the test with survivin and XIAP is recorded as “restored”. The “effect on induction of apoptosis resulting from combined treatment” value with HEC-1-A cells [1] (HEC-1-A cells, OBP-801 and LY294002 plus NAC) is “almost completely suppressed”. Also, the “effect on caspase activation and Bim induction due to combined treatment” value in the test with caspases, Bim was “inhibited the caspase activation and Bim induction”. Besides, the “effect on increase of intracellular reactive oxygen species caused by combined treatment” value in the test with HEC-1-A cells [3] was “blocked”. In addition, the “effect on induction of intracellular reactive oxygen species due to combined treatment” value in the test with 786-O cells [4] was “blocked the induction of intracellular reactive oxygen species”. Besides, the “effect on induction of apoptosis due to combined treatment” value in the test on 786-O cells [2] (786-O cells, OBP-801 and LY294002 plus NAC) is given as “blocked the induction of apoptosis”.
For `CS(=O)(=O)N1CCN(Cc2cc3nc(-c4cccc5[nH]ncc45)nc(N4CCOCC4)c3s2)CC1` [GDC-0941], in the test on 786-O cells [2], the “effect of combined use” value is “synergistic tumor therapeutic/prophylactic effect”.
`O=c1cc(N2CCOCC2)oc2c(-c3ccccc3)cccc12` [LY294002, 2-(4-morpholinyl)-8-phenyl-4H-1-benzopyran-4-one]: the “number of colonies formed” value in the test with HEC-1-A cells [5] (LY294002 alone, even at a concentration as high as 12.5 μM) is “no reduction in the number of colonies formed was observed”. In test [6], the “cleavage of caspase-3, caspase-8 and caspase-9” value was “did not induce cleavage of the foregoing caspases”. The “effect on tumor cell cycle progression” value in the test on HEC-1-A cells [1] is listed as “G1-phase arrest”. For the same compound, the “concentrations causing inhibition of cell growth” value in the test with HEC-1-A cells [7] (LY294002 alone) was no less than 6.3 µM. Also, the “concentrations causing decrease in phosphorylated Akt” value in the test with phosphorylated Akt is no less than 6.3 µM. Besides, the “induction of apoptosis (sub-G1), treatment alone” value with 786-O cells [2] (786-O cells) is recorded as “only slight induction of apoptosis”. The “growth of 786-O cells” value in the test with 786-O cells [8] is reported as “suppressed growth of 786-O cells or ACHN cells in concentration-dependent fashion”. The “growth of ACHN cells” value in the test on ACHN cells is “suppressed growth of 786-O cells or ACHN cells in concentration-dependent fashion”. In the test with Ishikawa cells, the “growth of Ishikawa cells” value is reported as “suppressed growth of Ishikawa cells in concentration-dependent fashion”.
Consider `Cc1nc(NC(=O)N2CCC[C@H]2C(N)=O)sc1-c1ccnc(C(C)(C)C(F)(F)F)c1` [BYL719], for which, in the test with 786-O cells [2], the “effect of combined use” value is given as “synergistic tumor therapeutic/prophylactic effect”.
For `Nc1cc(C(F)(F)F)c(-c2cc(N3CCOCC3)nc(N3CCOCC3)n2)cn1` [BKM120], the “effect of combined use” value in the test with 786-O cells [2] is “synergistic tumor therapeutic/prophylactic effect”.
With spiruchostatin A [OBP-801], the “number of colonies formed” value in the test on HEC-1-A cells [5] (OBP-801 alone at 4 nM, 48 hours treatment, 10 days culture) worked out at 60%. For the same compound, in [6], the “cleavage of caspase-3, caspase-8 and caspase-9” value was “did not induce cleavage of the foregoing caspases”. In the test with HEC-1-A cells [1], the “effect on tumor cell cycle progression” value is given as “G2/M-phase arrest”. Further, the “concentrations causing inhibition of cell growth” value with HEC-1-A cells [7] (OBP-801 alone) was no less than 0.0031 µM. The “induction of apoptosis (sub-G1), treatment alone” value in the test with 786-O cells [2] (786-O cells) is “only slight induction of apoptosis”. Further, in the test with 786-O cells [8], the “growth of 786-O cells” value was “suppressed growth of 786-O cells or ACHN cells in concentration-dependent fashion”. For the same compound, the “growth of ACHN cells” value with ACHN cells is “suppressed growth of 786-O cells or ACHN cells in concentration-dependent fashion”. For the same compound, the “growth of Ishikawa cells” value in the test on Ishikawa cells is recorded as “suppressed growth of Ishikawa cells in concentration-dependent fashion”. In addition, the “concentrations causing increase of acetylated histone H4” value in the test with acetylated histone H4 is reported as no less than 1.6 nM.
In the case of `CS(=O)(=O)N1CCc2c(-c3cnc(N)nc3)nc(N3CCOCC3)nc21` [CH5132799], in the test with 786-O cells [2], the “effect of combined use” value is “synergistic tumor therapeutic/prophylactic effect”.
